These results are taken from ChEMBL document CHEMBL3751691, “A Journey around the Medicinal Chemistry of Hepatitis C Virus Inhibitors Targeting NS4B: From Target to Preclinical Drug Candidates” (J Med Chem, 2016).

A value given as a limit tells only on which side of the number the result lay.

Data set [1] concerns Hepatitis C virus. Put plainly: Antiviral activity against HCV genotype 1b infected in human Huh7 cells assessed as inhibition of viral replication by luciferase reporter-based viral replicon assay. In kind it is functional, organism-based, Hepacivirus hominis. The conditions noted are these: Huh-7.
The test system of data set [2] is Hepatitis C virus. The data set is described as follows: Antiviral activity against HCV genotype 1b infected in Huh7.5 cells assessed as inhibition of viral replication at 72 hrs by luciferase reporter-based viral replicon assay. In kind it is functional, organism-based, Hepacivirus hominis. As to conditions: Huh7.5, 72 h.
A short description of data set [3]: Binding affinity to […] by fluorescence assay. Further details: species or system Hepacivirus hominis.
For data set [4], the system named is Hepatitis C virus. The data set is described as follows: Antiviral activity against HCV genotype 1b infected in human Huh7 cells assessed as inhibition of viral replication after 72 hrs by ELISA. In kind it is functional, organism-based, Hepacivirus hominis. The conditions noted are these: Huh-7, 72 h.
The nature of data set [5]: Binding affinity to HCV NS4B […] by quantitative PCR analysis. Further details: species or system Hepacivirus hominis.
The subject of data set [6] is Hepatitis C virus. Put plainly: Antiviral activity against HCV genotype 1a (H77) infected in human Huh7 cells assessed as inhibition of viral replication by luciferase reporter-based viral replicon assay. The format is functional, organism-based, Hepacivirus hominis. The conditions noted are these: genotype 1a H77, Huh-7. (A reporter such as luciferase makes a cellular process visible.)

The subject of data set [7] is Hepatitis C virus. Put plainly: Antiviral activity against HCV genotype 2a (JFH-1) infected in human Huh7 cells assessed as inhibition of viral replication by luciferase reporter-based viral replicon assay. As to conditions: JFH-1, Huh-7. In kind it is functional, organism-based, Hepacivirus hominis.
Data set [8] relates to Hepatitis C virus. Put plainly: Antiviral activity against HCV genotype 2b infected in human Huh7 cells assessed as inhibition of viral replication by luciferase reporter-based viral replicon assay. In kind it is functional, organism-based, Hepacivirus hominis. As to conditions: Huh-7.
The subject of data set [9] is Hepatitis C virus. Put plainly: Antiviral activity against HCV genotype 3a infected in human Huh7 cells assessed as inhibition of viral replication by luciferase reporter-based viral replicon assay. The format is functional, organism-based, Hepacivirus hominis. As to conditions: Huh-7.
The test system of data set [10] is Hepatitis C virus. The data set is described as follows: Antiviral activity against HCV genotype 4a infected in human Huh7 cells assessed as inhibition of viral replication by luciferase reporter-based viral replicon assay. In kind it is functional, organism-based, Hepacivirus hominis. The conditions noted are these: Huh-7.
Data set [11] has as its system Hepatitis C virus. Put plainly: Antiviral activity against HCV genotype 5a infected in human Huh7 cells assessed as inhibition of viral replication by luciferase reporter-based viral replicon assay. In kind it is functional, organism-based, Hepacivirus hominis. The conditions noted are these: Huh-7.
Data set [12] deals with Hepatitis C virus. Put plainly: Antiviral activity against HCV genotype 6a infected in human Huh7 cells assessed as inhibition of viral replication by luciferase reporter-based viral replicon assay. The conditions noted are these: Huh-7. The format is functional, organism-based, Hepacivirus hominis.
Data set [13] is described as follows: Cytotoxicity against human HuH7 cells by Cell Titer-Glo assay. The format is cell-based, Huh-7. For orientation: ATP-based viability assays read luminescence as a measure of living cells.
Data set [14] deals with Hepatitis C virus. The data set is described as follows: Antiviral activity against HCV genotype 6o infected in human Huh7 cells assessed as inhibition of viral replication by luciferase reporter-based viral replicon assay. The format is functional, organism-based, Hepacivirus hominis. The conditions noted are these: subtype 6, Huh-7.
In data set [15] the test system is Hepatitis C virus. The data set is described as follows: Antiviral activity against HCV genotype 1b infected in human Huh7.5 cells assessed as inhibition of viral replication after 24 hrs by renilla luciferase reporter-based viral replicon assay. The format is functional, organism-based, Hepacivirus hominis. As to conditions: Huh-7, 24 h.
Data set [16] is described as follows: Cytotoxicity against human Huh7.5 cells infected with HCV genotype 1b after 24 hrs by Cell Titer-Glo assay. The format is cell-based, Huh-7.
Data set [17] has as its system Hepatitis C virus. The data set is described as follows: Antiviral activity against HCV genotype 1a infected in Huh7.5 cells assessed as inhibition of viral replication after 24 hrs by renilla luciferase reporter-based viral replicon assay. The format is functional, organism-based, Hepacivirus hominis. The conditions noted are these: subtype 1a, Huh7.5, 24 h.
The subject of data set [18] is Hepatitis C virus. The data set is described as follows: Antiviral activity against HCV genotype 1b. In kind it is functional, organism-based, Hepacivirus hominis.
The test system of data set [19] is Hepatitis C virus. The data set is described as follows: Antiviral activity against HCV genotype 2a. The format is functional, organism-based, Hepacivirus hominis.
Data set [20] can be described thus: Inhibition of HCV NS3/4A protease. Further details: species or system Hepacivirus hominis.

Usually EC90 stands for the concentration at which the effect reaches the 90% level. For `CC(C)C[C@H]1CN(C(=O)/C=C/c2ccccc2)[C@@H](CC(C)C)C(=O)N1`, the EC90 with Hepatitis C virus [1] was 2300 nM.
Still for that read-out and setting: then `CC(C)C[C@H]1CN(C(=O)/C=C\c2ccccc2)[C@@H](CC(C)C)C(=O)N1`, with over 10000 nM; and `CC(C)C[C@H]1CN(C/C=C/c2ccccc2)[C@@H](CC(C)C)C(=O)N1`, with 3300 nM; and `CC(C)C[C@H]1CN(C(=O)C2CC2)[C@@H](CC(C)C)C(=O)N1`, with over 10000 nM.
Same read-out and setting: to `CC(C)C[C@H]1CN(C(=O)c2cccc(-c3ccccc3)c2)[C@@H](CC(C)C)C(=O)N1` belongs over 10000 nM; to `CC(C)C[C@H]1CN(C(=O)/C=C/c2ccc([N+](=O)[O-])cc2)[C@@H](CC(C)C)C(=O)N1`, over 10000 nM.
Same read-out and setting: to `CC(C)C[C@H]1CN(C(=O)/C=C/c2ccc(Cl)cc2)[C@@H](CC(C)C)C(=O)N1` belongs 1600 nM; to `CC(C)C[C@H]1CN(C(=O)/C=C/c2ccc(F)cc2)[C@@H](CC(C)C)C(=O)N1`, 1500 nM.
In the case of `CC(C)C[C@H]1CN(C(=O)c2coc(-c3ccccc3)n2)[C@@H](CC(C)C)C(=O)N1`, the EC90 with Hepatitis C virus [1] was over 10000 nM.
By EC50 is commonly meant the concentration that produces a half-maximal response. With `Clc1ccc(Cn2c(/C=C/C3CCN(CC4CCCCC4)C3)nc3cc(Br)ccc32)cc1` (stereo unspecified), the EC50 in the data set on Hepatitis C virus [2] was 1800 nM.
The same measure, in the same setting: then `C[C@H]1CCCN1CCCOc1nn(Cc2ccc(Cl)cc2)c2ccc(-c3ccc(N4CCOCC4)nc3)cc12`, with 3300 nM.
With `CC[C@H](C)[C@H]1CN(C(=O)c2cc(-c3ccc(F)cc3)on2)[C@@H](CC(C)C)C(=O)N1`, the 90% effect concentration (EC90) in the data set on Hepatitis C virus [1] was over 10000 nM.
A word on the Kd: it is the concentration at which binding is half-saturated. With `CC(=O)c1ccc(NC(=O)c2cc3c(C)nn(-c4ccccc4)c3s2)cc1`, the affinity in data set [3], expressed as Kd, was 1000 nM. In the data set on Hepatitis C virus [4], the concentration for a half-maximal effect (EC50) was determined as 3200 nM.
Regarding `CC(C)c1ccc(NC(=O)c2ccccc2)cc1`, in data set [3], the Kd is 6900 nM. In addition, the EC50 in the data set on Hepatitis C virus [4] was 2800 nM.
Broadly, the CC50 is the concentration at which the toxic effect on the cells reaches its halfway point. A lower CC50 goes with harm at low concentration. With `O=C(c1ccccc1)N1CCC2(CCCN(c3ncc(-c4ccccc4)c(-c4ccc(Cl)cc4)n3)C2)CC1`, the EC50 in the data set with Hepatitis C virus [1] was 20 nM; in the data set with Hepatitis C virus [6] it was 800 nM; in the data set on Hepatitis C virus [7] it was 7600 nM; with Hepatitis C virus [8], 2200 nM; in the data set on Hepatitis C virus [9], 43.8 nM; with Hepatitis C virus [10], 200 nM. In addition, the figures for the EC50 with Hepatitis C virus [11], in the data set on Hepatitis C virus [12] and with Hepatitis C virus [14] were 26.6 nM, 800 nM and 9500 nM, respectively. Binding in data set [5] was put at a Kd of 45.8 nM. The same compound yielded a CC50 in data set [13] of over 43000 nM.
On to `Clc1ccc(Cn2nc(OCCCN3CCCC3)c3ccccc32)cc1`, for which the EC50 in the data set on Hepatitis C virus [2] amounted to 3700 nM.
In the case of `O=C(NCc1cccs1)c1nn2c(c1Cl)N[C@H](c1ccco1)C[C@@H]2C(F)(F)F`, the EC50 in the data set with Hepatitis C virus [15] is 630 nM; in the data set with Hepatitis C virus [17] it was 620 nM. The compound also had a CC50 at 24 h in data set [16] of over 100000 nM.
In data set [3], `COC(=O)c1c(NC(=O)Cc2cccs2)sc(C(=O)Nc2ccc(Cl)cc2)c1C` displayed a Kd of 300 nM. For the same compound, the EC50 in the data set with Hepatitis C virus [4] came to 700 nM.
For `O=C(c1ccccc1)N1CCC2(CCCN(c3ncc(Br)c(-c4ccc(Cl)cc4)n3)C2)CC1`, the EC50 with Hepatitis C virus [1] was found to be 172 nM; in the data set on Hepatitis C virus [6] it was 2200 nM. In data set [5], this compound had a Kd of 52.9 nM. This compound had a CC50 in data set [13] of 38700 nM.
In the case of `Cc1nccn1-c1nc(-c2ccc(Cl)cc2)cc(C(F)(F)F)n1`, in data set [3], the Kd was determined as 2100 nM. In addition, the EC50 in the data set on Hepatitis C virus [4] was determined as 2200 nM.
In the same order, the values of `COc1ccc(Cl)cc1Nc1nc(-c2cccnc2)cs1` are 1700 nM and 1500 nM.
Turning to `O=C(NCc1cccs1)c1nn2c(c1Cl)NC(c1ccco1)CC2C(F)(F)F` (racemic), the EC50 in the data set on Hepatitis C virus [15] came to 1780 nM. In data set [16], the CC50 at 24 h was over 100000 nM.
As to `CC(C)CN(C)c1nc(N)c(C(=O)N=C(N)N)nc1Cl` [5-(N-METHYL-N-ISOBUTYL)AMILORIDE], the concentration for a half-maximal effect (EC50) was found to be 2500 nM with Hepatitis C virus [18] and 3700 nM in the data set on Hepatitis C virus [19].
One may read the Ki as the equilibrium dissociation constant of an inhibitor or competing ligand from its target. Read a high Ki as weaker binding. Compound `CC(C)(C)NC(=O)N[C@H](C(=O)N1C[C@H]2[C@@H]([C@H]1C(=O)NC(CC1CCC1)C(=O)C(N)=O)C2(C)C)C(C)(C)C` (stereo partly specified) [BOCEPREVIR] displayed a Ki in data set [20] of 14 nM.
